“Also recorded” adds a separate entry of the source.
Experiments:
[1] = tested on: peripheral blood mononuclear cells (PBMC); settings: Ravid et al. 1990; cited from earlier work
[2] = tested on: human psoriatic fibroblasts; assay: Inhibition of human psoriatic fibroblast proliferation; type: cell-based
Protocol: PTX and PPF, alone as well as PTX in combination with other drugs were tested.
Human psoriatic fibroblasts were obtained from skin biopsies of 5 individuals with plaque psoriasis. Cells in the 3-7th passages were used for the experiments. Human psoriatic fibroblasts (4×10^3 -6×10^3 cells) were added in 24-well plates and cultured in Dulbecco's Modified Eagle's Medium (DMEM) supplemented with 10% fetal calf serum, 2 mM L-glutamine, 100 u/ml penicillin, 100 μg/ml streptomycin (DMEM+) at 5% CO2 and 95% humidity at 37° C.
After 3 days, medium was replaced with fresh DMEM+(control) or with medium containing various concentrations of compounds alone or in combination with pentoxifylline and incubation was continued for additional 3 days. Stock solutions (10^-1 -10^-2 M) of the compounds tested were made in ethanol. For these compounds special control (DMEM+ with 1% ethanol) was made. The compounds tested together with pentoxifylline were 3-heptanone, 3,3-dimethylbutyric acid, lipoic acid, 1,25-dihydroxyvitamin D3 betamethasone dipropionate and hydrocortisone-17-butyrate.
On the last day of experiments, the medium was aspirated and the cells were obtained by trypsinization. The number of cells in each well was counted by the use of an hemocytometer.
The percentage of inhibition of fibroblast proliferation was calculated according to the formula: [formula] and the results are shown in Tables 3 and 4.

[3] = tested on: human peripheral blood mononuclear cells (lymphocytes); assay: Inhibition of the mitogenic (PHA) stimulation of human lymphocytes (PBMC), [3H]thymidine; type: cell-based; settings: for inhibition at 1000 µM / inhibition at 300 µM: Homo sapiens, Lymphocyte, lymphocytes from healthy volunteers, read-out: net inhibitory effect on the mitogenic stimulation of human lymphocytes; for inhibition at 1000 µM: 1 × 10^-3 M; for inhibition at 300 µM: 3 × 10^-4 M
Protocol: Buffy coats from the Beilinson Medical Center Blood Bank or 20 mL samples of heparinized venous blood from healthy or atopic donors were used as a source for human peripheral blood mononuclear (PBM) cells. PBM cells were separated by Ficoll-Hypaque density gradient centrifugation. […] The nonadhering cells were stirred gently and carefully collected.
PHA (1 μg/mL), indomethacin (5 μg/mL) and various xanthine derivatives were added at initiation of culture. Indomethacin was dissolved in ethanol. […] [methyl-^3 H]Thymidine (1 μCi/well) was added at 68 h, and the cells were harvested 4 h later using an automated cell harvester (Dynatech, Alexandria, Va.). Unless otherwise stated, all cultures were performed in triplicate.

psoriasis lesions = assay: Clinical trial in psoriasis, 5% dyphylline cream vs placebo, PASI; type: in vivo, human patients; settings: for % Decrease in PASI: 5% dyphylline cream, n = 33
Protocol: Two similar plaque areas of psoriasis (i.e. both legs or forearms), were selected for treatment in each patient. In each patient one area on one side of the body was treated with 2% pentoxifylline formulated as in Example 1 and the other area on the other side of the body was treated with placebo cream formulated identically but without the pentoxifylline. The cream (formulation A in Example 1) was applied by the patient twice daily.
The dermatological assessment was performed as follows. The dermatologist measured the area of the lesion in cm^2. The severity of each lesion was evaluated by grading erythema, scaling and thickness on a 0-4 scale where 0=none, 1=slight, 2=moderate, 3=severe and 4=exceptionally severe.
Based on these measurements the Psoriasis Area Severity Index (PASI) was calculated for each of the 2 lesions on each patient as follows:
PASI=Area x (Erythema+Thickness+Scaling)
In a different series of tests 5% dyphylline cream was applied in the same vehicle that had been used to apply PTX cream. Thus the formulation used in this series of tests was the same as in Example 1 with the exception that 5% dyphylline was used in place of 2% pentoxifylline. The design of the trial was similar in all respects to the clinical trial of PTX described in Example 5 except that the number of patients was 33.

[4] = tested on: human psoriatic skin transplants; assay: Topical treatment of human psoriatic skin transplanted to nude mice (epidermal thickness / acanthosis); type: in vivo, human skin on outbred Balb/C nude mice; settings: for % Improvement (Decrease in Thickness) / Average Improvement (decrease in epidermal thickness): 7 days; for Average Improvement (decrease in epidermal thickness): placebo 5%
From the text: Human psoriatic skin from psoriatic patients was transplanted to nude mice essentially according to the method of G. Kreuger et al., Prog. in Dermatol. […] The donors had stable plaque type psoriasis for at least one year preceding biopsy and had not received systemic anti-psoriatic therapy for the 4 weeks preceding biopsy. They had also not received topical therapy or U.V. therapy for the two weeks preceding biopsy. […] In this method the area (A) of the psoriasis in four main body parts (head (H), trunk (T), upper extremities (U) and lower extremities (L)) is assigned a value from 0-6 depending on the extent of psoriasis where O reflects no involvement and 6 reflects 90-100% involvement. The severity of the lesion is assessed based on three parameters: Erythema (E), Desquamation (scaling) (D) and Infiltration (I). The severity of each of these parameters is measured on a scale of 0-4 where 0 is no involvement and 4 is very sever. The total severity score is calculated according to the following formula: […]
Split thickness biopsies of nonpustular psoriatic human tissue, 4×5 cm and 0.4 mm thick were obtained from the edge of established plaques from various donor patients. […] The grafts were allowed to heal for one week prior to topical application of the test preparations.
Outbred Balb/C nude mice, 2 to 3 months of age were used in this study. The mice were obtained from the pathogen free animal breeding facility at the University of Tel Aviv (Israel) and were raised in the pathogen-free animal facility at the Faculty of Medicine, Technion-Israel Institute of Technology, Haifa, Israel.
On the day following the end of treatment the severity of the psoriatic lesion was assessed and then the animals were sacrificed and the entire graft was excised and divided into two equal sections. One section was used to assess changes in the rate of proliferation by autoradiography (tritiated thymidine incorporation) while the other section was sectioned for microscopic histological assessment, including acanthosis and parakeratosis.
In another series of experiments, human psoriatic skin of various severities was transplanted on each of 28 nude mice. The graft area was treated with various preparations as described above.
The treatments were applied as creams and were administered as described above.

[5] = additional drug 10^-4 M with PTX 10^-3 M
[6] = additional drug 10^-4 M with PTX 10^-4 M
[7] = additional drug 10^-7 M with PTX 10^-4 M
[8] = additional drug 10^-3 M with PTX 10^-3 M
[9] = additional drug 10^-3 M with PTX 10^-4 M

Compound: C[C@@H]1C[C@H]2[C@@H]3CCC4=CC(=O)C=C[C@]4(C)[C@@]3(F)[C@@H](O)C[C@]2(C)[C@@]1(O)C(=O)CO [dexamethasone]
- inhibition of mitogenic stimulation of PBMC (in words) [1]: inhibited the mitogenic stimulation of PBMC

Compound: CCC(=O)OCC(=O)[C@@]1(OC(=O)CC)[C@@H](C)C[C@H]2[C@@H]3CCC4=CC(=O)C=C[C@]4(C)[C@@]3(F)[C@@H](O)C[C@@]21C [Betamethasone dipropionate, betamethasone dipropionate]
- % Inhibition of Proliferation [2, 5]: 77.5%
- % Inhibition of Proliferation [2, 6]: 55.8%
- % Inhibition of Proliferation [2, 7]: 43.1%

Compound: O=C(O)CCCCC1CCSS1 (centres unmarked) [Lipoicacid, lipoic acid]
- % Inhibition of Proliferation [2, 5]: 50.2%
- % Inhibition of Proliferation [2, 6]: 14.5%

Compound: CC(C)(C)CC(=O)O [3,3dimethyl butyricacid, 3,3-dimethylbutyric acid]
- % Inhibition of Proliferation [2, 8]: 21%
- % Inhibition of Proliferation [2, 9]: 36.3%
- % Inhibition of Proliferation [2, 5]: 17.2%
- % Inhibition of Proliferation [2, 6]: 19.3%

Compound: CCCn1cnc2c1c(=O)n(CCCCC(C)=O)c(=O)n2C [Propentofylline, 3-methyl-7-propyl-1-(5-oxohexyl)-xanthine]
- inhibition at 1000 µM [3]: 89%
- inhibition at 300 µM [3]: 88%
- inhibition of the mitogenic stimulation compared with the other xanthine derivatives (in words) ([3]; vs theophylline and diphylline, healthy volunteers): inhibited the mitogenic stimulation to a far greater effect than the other xanthine derivatives
- inhibition at 1000 µM ([2]; Homo sapiens, Fibroblast, compound alone, 10^-3 M, Table 4): 39 ± 7%
- inhibition at 100 µM ([2]; Homo sapiens, Fibroblast, compound alone, 10^-4 M, Table 4): 20.3 ± 6.6%

Compound: Cn1c(=O)c2c(ncn2CC(O)CO)n(C)c1=O (centres unmarked) [Dyphylline]
- effectiveness of treatment of psoriasis (in words) (psoriasis lesions; 5% dyphylline cream vs placebo): nearly ineffective with respect to placebo; also recorded: virtually inactive in the treatment of psoriasis
- % Decrease in PASI (psoriasis lesions; 1 week, placebo 12.4): 12.6%
- % Decrease in PASI (psoriasis lesions; 2 weeks, placebo 30.0): 25.9%
- % Decrease in PASI (psoriasis lesions; 4 weeks, placebo 21.5): 28.0%
- % Decrease in PASI (psoriasis lesions; 6 weeks, placebo 15.6): 26.5%
- inhibition at 1000 µM [3]: 24%
- inhibition at 300 µM [3]: 12%
- SUCCESS RATIO (decrease of at least 15% in epidermal thickness) ([4]; 8% dyphylline, 7 days topical, placebo 0/6): 0/2
- % Improvement (Decrease in Thickness) ([4]; 8% dyphylline, donor patient 1 (PASI 3.2)): 0%
- % Improvement (Decrease in Thickness) ([4]; 8% dyphylline, donor patient 5 (PASI 31.3)): 0%
- Average Improvement (decrease in epidermal thickness) ([4]; 8% dyphylline): 0%
- Epidermal Thickness (Acanthosis) after 7 days treatment ([4]; 8% dyphylline, donor patient 1 (PASI 3.2), before treatment 44 μm): 65 μm
- Epidermal Thickness (Acanthosis) after 7 days treatment ([4]; 8% dyphylline, donor patient 5 (PASI 31.3), before treatment 35 μm): 45 μm
- effectiveness in treating psoriasis (in words) ([4]; experiment of Table 1, transplanted skin): virtually inactive
- effectiveness in treating psoriasis (in words) ([4]; experiment of Table 2, 28 nude mice): inactive

Compound: CCCCCC(C)=O [2-Heptanone]
- % Inhibition of Proliferation [2, 8]: 45%
- % Inhibition of Proliferation [2, 9]: 18.6%
- % Inhibition of Proliferation [2, 5]: 26.4%
- % Inhibition of Proliferation [2, 6]: 21.0%
- % Inhibition of Proliferation ([2]; additional drug 10^-5 M with PTX 10^-3 M): 21.3%

Compound: C=C1/C(=C\C=C2/CCC[C@]3(C)[C@@H]([C@H](C)CCCC(C)(C)O)CC[C@@H]23)C[C@@H](O)C[C@@H]1O [1,25(OH)2 D3, 1,25-dihydroxyvitamin D3]
- % Inhibition of Proliferation [2, 7]: 49.5%

Compound: Cn1c(=O)c2[nH]cnc2n(C)c1=O [Theophylline]
- inhibition at 1000 µM [3]: 59%
- inhibition at 300 µM [3]: 37%

Compound: CCC(=O)O[C@]1(C(=O)CCl)[C@@H](C)C[C@H]2[C@@H]3CCC4=CC(=O)C=C[C@]4(C)[C@@]3(F)[C@@H](O)C[C@@]21C [Clobetasol propionate]
- Average Improvement (decrease in epidermal thickness) ([4]; 0.05% clobetasol propionate (Dermovate)): 35%
- % Improvement (Decrease in Thickness) ([4]; 0.05% clobetasol propionate, donor patient 1 (PASI 3.2)): 45%
- % Improvement (Decrease in Thickness) ([4]; 0.05% clobetasol propionate, donor patient 3 (PASI 7.6)): 41%
- % Improvement (Decrease in Thickness) ([4]; 0.05% clobetasol propionate, donor patient 4 (PASI 17.6)): 55%
- % Improvement (Decrease in Thickness) ([4]; 0.05% clobetasol propionate, donor patient 5 (PASI 31.3)): 0%
- Epidermal Thickness (Acanthosis) after 7 days treatment ([4]; 0.05% clobetasol propionate, donor patient 1 (PASI 3.2), before treatment 44 μm): 24 μm
- Epidermal Thickness (Acanthosis) after 7 days treatment ([4]; 0.05% clobetasol propionate, donor patient 3 (PASI 7.6), before treatment 46 μm): 27 μm
- Epidermal Thickness (Acanthosis) after 7 days treatment ([4]; 0.05% clobetasol propionate, donor patient 4 (PASI 17.6), before treatment 54 μm): 24 μm
- Epidermal Thickness (Acanthosis) after 7 days treatment ([4]; 0.05% clobetasol propionate, donor patient 5 (PASI 31.3), before treatment 35 μm): 47 μm

— US5565462A, “Composition for topical treatment of psoriasis and atopic dermatitis comprising a xanthine derivative” (Teva Pharmaceutical Industries, Ltd., priority 1991, dated 1996)
